Legend:
Type in all cases: cell-based
[1] = biological target: human EGFR exon 20 insertion NPG (H773_V774insNPG) (Homo sapiens, UniProt P00533, INS773NPG, cells depend on it); experiment: Ba/F3-EGFR-Exon20-NPG cell anti-proliferative assay (CellTiter 96 MTS, 72 h); details: read-out: EGFR exon 20 NPG insertion IC50
Description: Ba/F3 cells expressing EGFR exon 20 insertions (named Ba/F3-EGFR-Exon20-NPG or Ba/F3-EGFR-Exon20-ASV) can proliferate in the absence of IL-3. The anti-proliferative activity of compounds were determined as follows: BaF3-EGFR-Exon20 cells (NPG or ASV) seeded in 96 well plates (2500 cells/well) were treated with test compound (dissolved in DMSO) at a series of concentrations (4-fold dilution, top concentration: 10,000 nM). The plates were incubated for 72 h in a 37° C. incubator with 5% CO2, and the number of viable cells in each well were measured indirectly by CellTiter 96® Aqueous One Solution Cell Proliferation Assay (Promega) This assay is a colorimetric method for determining the number of viable cells through measurement of their metabolic activity by detection of enzymatic conversion of tetrazolium salts into blue formazan derivatives. Reagent (20 μL) was added into each well, and the plates were returned to the incubator for 2 h. The absorbance in each well was then measured at 490 nm using an Envision plate reader (Perkin Elmer).

[2] = biological target: human EGFR L858R and T790M double mutation (LT) (Homo sapiens (Human), UniProt P00533, L858R/T790M); experiment: Ba/F3-EGFR L858R/T790M cell anti-proliferative assay (CellTiter 96 MTS, 72 h); details: Ba/F3-EGFR L858R/T790M cells; for IC50: read-out: EGFR exon 21 L858R and T790M mutation IC50;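 for all read-outs here: Ba/F3 cells carrying the EGFR L858R/T790M double mutant are able to grow without IL-3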
Description: An expression vector, pLVX-IRES puro (Clontech) coding for human EGFR L858R and T790M double mutation, was transfected into HEK293 cells by the Trans-Lentiviral ORF Packaging System (Thermo Scientific), to produce virus encoding EGFR L858R and T790M double mutations. […] Ba/F3 cells expressing EGFR L858R and T790M double mutation (named Ba/F3-EGFR L858R/T790M) can proliferate in the absence of IL-3. The anti-proliferative activity of compounds was determined as follows: BaF3-EGFR L858R/T790M cells seeded in 96 well plates (2500 cells/well) were treated with test compound (dissolved in DMSO) at a series of concentrations (4-fold dilution, top concentration: 10,000 nM). The plates were incubated for 72 h in a 37° C. incubator with 5% CO2, and the number of viable cells in each well were measured indirectly by CellTiter 96® Aqueous One Solution Cell Proliferation Assay (Promega; this assay is a colorimetric method for determining the number of viable cells through measurement of their metabolic activity by detection of enzymatic conversion of tetrazolium salts into blue formazan derivatives). Reagent (20 μL) was added into each well, and the plates were returned to the incubator for 2 h. The absorbance in each well was then measured at 490 nm using an Envision plate reader (Perkin Elmer).

[3] = biological target: human EGFR E746-A750 deletion and T790M Mutation (DT) (Homo sapiens (Human), UniProt P00533, DEL746-750/T790M); experiment: Ba/F3-EGFR-Del/T790M cell anti-proliferative assay (CellTiter 96 MTS, 72 h); details: Ba/F3-EGFR-Del/T790M cells; read-out: EGFR exon 19 deletion and T790M mutation IC50
Description: An expression vector, pLVX-IRES puro (Clontech) coding for human EGFR E746-A750 deletion and T790M Mutation, was transfected into HEK293 cells by the Trans-Lentiviral ORF Packaging System (Thermo Scientific), to produce virus encoding EGFR exon 19 deletion and T790M mutations. […] Ba/F3 cells expressing EGFR E746-A750 deletion and T790M Mutation (named Ba/F3-EGFR-Del/T790M) can proliferate in the absence of IL-3. The anti-proliferative activity of compounds was determined as follows: BaF3-EGFR-Del/T790M cells seeded in 96 well plates (2500 cells/well) were treated with test compound (dissolved in DMSO) at a series of concentrations (4-fold dilution, top concentration: 10,000 nM). The plates were incubated for 72 h in a 37° C. incubator with 5% CO2, and the number of viable cells in each well were measured indirectly by CellTiter 96® Aqueous One Solution Cell Proliferation Assay (Promega; this assay is a colorimetric method for determining the number of viable cells through measurement of their metabolic activity by detection of enzymatic conversion of tetrazolium salts into blue formazan derivatives). Reagent (20 μL) was added into each well, and the plates were returned to the incubator for 2 h. The absorbance in each well was then measured at 490 nm using an Envision plate reader (Perkin Elmer).

[4] = biological target: human EGFR exon 20 insertion ASV (V769_D770insASV) (Homo sapiens (Human), UniProt P00533, INS769ASV); experiment: Ba/F3-EGFR-Exon20-ASV cell anti-proliferative assay (CellTiter 96 MTS, 72 h); details: Ba/F3-EGFR-Exon20-ASV cells;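 note: Ba/F3 cells bearing the EGFR exon 20 ASV insertion, a line able to proliferate without IL-3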
[5] = biological target: Her2 exon 20 YVMA insertion (A775_G776ins YVMA) (Homo sapiens (Human), UniProt P04626, INS775YVMA); experiment: Ba/F3-Her2 Exon20 YVMA cell anti-proliferative assay (CellTiter 96 MTS, 72 h); details: Ba/F3-Her2 Exon20 YVMA cells
Description: Ba/F3 cells expressing Her2 Exon20 YVMA insertions (named Ba/F3-Her2 Exon20 YVMA) can proliferate in the absence of IL-3.

Chain of Her2 exon 20 YVMA insertion (A775_G776ins YVMA) (P04626 other isoform, or with tags, fused parts or gaps ins YVMA behind 775): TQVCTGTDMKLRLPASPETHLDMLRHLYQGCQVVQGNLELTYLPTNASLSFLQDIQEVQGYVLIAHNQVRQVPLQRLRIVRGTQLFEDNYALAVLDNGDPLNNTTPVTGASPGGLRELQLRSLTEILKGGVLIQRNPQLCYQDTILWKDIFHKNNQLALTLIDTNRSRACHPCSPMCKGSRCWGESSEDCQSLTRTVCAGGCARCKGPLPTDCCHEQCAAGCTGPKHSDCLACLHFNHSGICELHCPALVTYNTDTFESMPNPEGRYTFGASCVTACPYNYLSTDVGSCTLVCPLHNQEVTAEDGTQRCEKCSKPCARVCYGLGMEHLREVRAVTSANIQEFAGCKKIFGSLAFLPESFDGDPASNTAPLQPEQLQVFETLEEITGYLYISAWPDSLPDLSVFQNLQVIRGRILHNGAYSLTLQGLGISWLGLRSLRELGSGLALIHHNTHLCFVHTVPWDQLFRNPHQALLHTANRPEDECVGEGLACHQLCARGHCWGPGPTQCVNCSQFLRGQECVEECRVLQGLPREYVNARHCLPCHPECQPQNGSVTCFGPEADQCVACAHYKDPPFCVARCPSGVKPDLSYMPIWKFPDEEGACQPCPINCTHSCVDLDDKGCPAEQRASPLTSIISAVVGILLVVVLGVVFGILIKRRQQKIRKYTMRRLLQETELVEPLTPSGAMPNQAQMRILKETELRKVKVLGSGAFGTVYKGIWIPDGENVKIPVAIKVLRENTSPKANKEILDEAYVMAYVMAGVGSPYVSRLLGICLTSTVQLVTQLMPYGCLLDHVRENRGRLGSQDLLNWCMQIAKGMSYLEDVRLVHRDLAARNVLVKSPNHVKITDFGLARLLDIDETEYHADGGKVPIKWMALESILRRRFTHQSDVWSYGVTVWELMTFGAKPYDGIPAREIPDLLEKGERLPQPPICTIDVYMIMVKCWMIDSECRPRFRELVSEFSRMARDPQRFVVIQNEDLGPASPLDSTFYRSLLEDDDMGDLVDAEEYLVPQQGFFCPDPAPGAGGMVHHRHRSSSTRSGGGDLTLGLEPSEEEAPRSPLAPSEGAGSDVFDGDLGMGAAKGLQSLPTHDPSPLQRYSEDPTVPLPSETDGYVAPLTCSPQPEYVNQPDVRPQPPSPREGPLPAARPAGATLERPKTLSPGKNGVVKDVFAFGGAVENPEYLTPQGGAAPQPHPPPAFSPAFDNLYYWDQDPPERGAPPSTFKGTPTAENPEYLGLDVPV
Chain of human EGFR E746-A750 deletion and T790M Mutation (DT) (P00533 other isoform, or with tags, fused parts or gaps T790M/del E746-A750): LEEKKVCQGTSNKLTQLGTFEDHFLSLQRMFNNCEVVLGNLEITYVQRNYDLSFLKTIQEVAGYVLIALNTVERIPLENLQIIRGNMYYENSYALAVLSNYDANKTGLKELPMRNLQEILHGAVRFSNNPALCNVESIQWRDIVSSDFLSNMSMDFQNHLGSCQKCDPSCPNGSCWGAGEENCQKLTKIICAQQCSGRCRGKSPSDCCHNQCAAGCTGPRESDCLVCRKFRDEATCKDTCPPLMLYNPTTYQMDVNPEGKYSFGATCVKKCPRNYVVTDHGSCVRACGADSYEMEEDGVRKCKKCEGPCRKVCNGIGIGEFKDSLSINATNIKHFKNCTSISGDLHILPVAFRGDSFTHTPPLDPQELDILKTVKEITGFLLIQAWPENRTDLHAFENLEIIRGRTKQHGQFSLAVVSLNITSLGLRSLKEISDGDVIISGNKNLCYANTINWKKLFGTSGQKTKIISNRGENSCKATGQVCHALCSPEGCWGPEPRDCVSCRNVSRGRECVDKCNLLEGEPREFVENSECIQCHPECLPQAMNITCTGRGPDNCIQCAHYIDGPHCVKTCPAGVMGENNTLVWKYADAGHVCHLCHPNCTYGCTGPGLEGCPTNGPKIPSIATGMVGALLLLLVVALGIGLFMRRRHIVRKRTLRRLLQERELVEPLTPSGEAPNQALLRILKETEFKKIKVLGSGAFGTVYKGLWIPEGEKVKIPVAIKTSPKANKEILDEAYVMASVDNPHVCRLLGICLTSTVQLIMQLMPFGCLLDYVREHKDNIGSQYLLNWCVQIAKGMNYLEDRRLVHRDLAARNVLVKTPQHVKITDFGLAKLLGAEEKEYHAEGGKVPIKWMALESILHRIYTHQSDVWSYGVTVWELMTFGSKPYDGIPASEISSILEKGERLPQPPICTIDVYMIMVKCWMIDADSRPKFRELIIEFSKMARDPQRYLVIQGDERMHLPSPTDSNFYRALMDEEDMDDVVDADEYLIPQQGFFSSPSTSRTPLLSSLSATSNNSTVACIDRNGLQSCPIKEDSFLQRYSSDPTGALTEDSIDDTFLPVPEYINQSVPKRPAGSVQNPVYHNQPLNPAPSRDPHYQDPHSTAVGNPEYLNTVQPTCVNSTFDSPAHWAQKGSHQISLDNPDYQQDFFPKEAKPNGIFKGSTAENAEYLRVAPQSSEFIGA
Chain of human EGFR exon 20 insertion ASV (V769_D770insASV) (P00533 other isoform, or with tags, fused parts or gaps ins ASV behind 769): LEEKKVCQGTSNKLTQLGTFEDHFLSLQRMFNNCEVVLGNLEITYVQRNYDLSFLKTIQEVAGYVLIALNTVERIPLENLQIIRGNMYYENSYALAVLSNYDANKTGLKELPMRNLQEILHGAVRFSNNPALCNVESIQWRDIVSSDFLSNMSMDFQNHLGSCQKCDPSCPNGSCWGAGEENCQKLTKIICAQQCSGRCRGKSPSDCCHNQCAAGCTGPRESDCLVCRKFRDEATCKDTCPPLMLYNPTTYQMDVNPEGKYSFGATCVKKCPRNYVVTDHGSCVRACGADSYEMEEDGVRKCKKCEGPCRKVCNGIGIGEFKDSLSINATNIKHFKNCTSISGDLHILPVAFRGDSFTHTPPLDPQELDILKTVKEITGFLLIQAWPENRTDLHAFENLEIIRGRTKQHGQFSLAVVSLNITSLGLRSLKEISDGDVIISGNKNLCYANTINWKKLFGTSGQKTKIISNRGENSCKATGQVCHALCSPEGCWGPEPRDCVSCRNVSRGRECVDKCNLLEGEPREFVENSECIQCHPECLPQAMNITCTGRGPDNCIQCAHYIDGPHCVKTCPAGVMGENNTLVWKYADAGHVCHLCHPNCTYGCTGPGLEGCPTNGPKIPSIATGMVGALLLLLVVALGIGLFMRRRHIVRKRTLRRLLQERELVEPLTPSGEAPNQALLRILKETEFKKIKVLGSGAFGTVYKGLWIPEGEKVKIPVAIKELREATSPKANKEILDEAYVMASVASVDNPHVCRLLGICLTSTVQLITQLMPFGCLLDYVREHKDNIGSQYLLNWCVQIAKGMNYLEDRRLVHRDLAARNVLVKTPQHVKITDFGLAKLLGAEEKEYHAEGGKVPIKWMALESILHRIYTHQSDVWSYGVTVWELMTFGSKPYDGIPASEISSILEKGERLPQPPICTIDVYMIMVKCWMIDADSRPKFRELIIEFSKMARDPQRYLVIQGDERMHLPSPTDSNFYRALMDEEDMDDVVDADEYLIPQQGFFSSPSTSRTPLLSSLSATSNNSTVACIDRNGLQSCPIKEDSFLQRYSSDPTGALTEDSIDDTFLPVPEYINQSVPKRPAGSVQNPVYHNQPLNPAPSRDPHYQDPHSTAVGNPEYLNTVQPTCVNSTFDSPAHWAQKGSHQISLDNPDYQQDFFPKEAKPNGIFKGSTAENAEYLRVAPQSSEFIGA
Chain of human EGFR L858R and T790M double mutation (LT) (P00533 25-1210 T790M/L858R): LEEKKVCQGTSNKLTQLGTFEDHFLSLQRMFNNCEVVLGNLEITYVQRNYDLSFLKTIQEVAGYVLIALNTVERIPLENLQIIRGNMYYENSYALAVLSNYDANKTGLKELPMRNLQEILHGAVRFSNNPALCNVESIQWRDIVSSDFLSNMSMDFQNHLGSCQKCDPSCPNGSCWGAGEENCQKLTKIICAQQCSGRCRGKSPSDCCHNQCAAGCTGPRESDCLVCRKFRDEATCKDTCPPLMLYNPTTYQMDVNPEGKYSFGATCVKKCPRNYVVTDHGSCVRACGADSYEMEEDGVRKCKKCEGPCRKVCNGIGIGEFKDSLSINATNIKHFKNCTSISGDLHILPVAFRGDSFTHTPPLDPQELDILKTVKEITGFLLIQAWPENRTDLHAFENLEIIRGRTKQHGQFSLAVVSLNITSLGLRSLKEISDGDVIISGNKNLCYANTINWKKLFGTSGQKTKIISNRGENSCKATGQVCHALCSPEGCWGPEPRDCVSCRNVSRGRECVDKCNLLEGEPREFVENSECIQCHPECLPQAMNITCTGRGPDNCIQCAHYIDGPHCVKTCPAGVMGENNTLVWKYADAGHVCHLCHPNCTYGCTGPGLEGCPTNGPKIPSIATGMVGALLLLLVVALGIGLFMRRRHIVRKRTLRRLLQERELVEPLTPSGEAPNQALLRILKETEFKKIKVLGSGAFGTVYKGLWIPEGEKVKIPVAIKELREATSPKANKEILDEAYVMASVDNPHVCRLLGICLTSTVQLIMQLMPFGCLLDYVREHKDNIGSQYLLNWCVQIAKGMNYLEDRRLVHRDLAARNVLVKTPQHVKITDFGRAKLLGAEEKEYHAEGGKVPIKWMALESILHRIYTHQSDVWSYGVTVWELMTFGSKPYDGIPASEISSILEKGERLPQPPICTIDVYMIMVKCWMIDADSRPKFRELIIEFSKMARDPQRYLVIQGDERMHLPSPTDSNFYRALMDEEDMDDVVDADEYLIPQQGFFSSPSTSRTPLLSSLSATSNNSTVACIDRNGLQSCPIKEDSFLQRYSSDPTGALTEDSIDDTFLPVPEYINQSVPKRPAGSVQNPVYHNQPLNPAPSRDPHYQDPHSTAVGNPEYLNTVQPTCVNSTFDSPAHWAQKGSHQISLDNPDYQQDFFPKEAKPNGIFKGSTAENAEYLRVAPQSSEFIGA

C=CC(=O)Nc1cc(Nc2ncc(C(=O)OC(C)C)c(-c3cn(C)c4ccccc34)n2)c(OC)cc1N(C)CCN(C)C [Example 10, isopropyl 2-((5-acrylamido-4-((2-(dimethylamino)ethyl)(methyl)amino)-2-methoxyphenyl)amino)-4-(1-methyl-1H-indol-3-yl)pyrimidine-5-carboxylate]
IC50 [1]: < 100 nM
IC50 [2]: < 100 nM
IC50 [3]: < 100 nM
IC50 [4]: < 100 nM
IC50 [5]: < 100 nM

C=CC(=O)Nc1cc(Nc2ncc(C(=O)OC(C)C)c(-c3cn(C)c4ccccc34)n2)c(OC)cc1N(C)CC1CCCN1C (stereo not shown) [Example 17, isopropyl 2-((5-acrylamido-2-methoxy-4-(methyl((1-methylpyrrolidin-2-yl)methyl)amino)phenyl)amino)-4-(1-methyl-1H-indol-3-yl)pyrimidine-5-carboxylate]
IC50 [1]: < 100 nM
IC50 [2]: < 100 nM
IC50 [3]: < 100 nM
IC50 [4]: < 100 nM
IC50 [5]: < 100 nM

C=CC(=O)Nc1cc(Nc2ncc(C(=O)OC(C)C)c(-c3c[nH]c4ccccc34)n2)c(OC)cc1N(C)CCN(C)C [Example 30, isopropyl 2-((5-acrylamido-4-((2-(dimethylamino)ethyl)(methyl)amino)-2-methoxyphenyl)amino)-4-(1H-indol-3-yl)pyrimidine-5-carboxylate]
IC50 [1]: < 100 nM
IC50 [2]: < 100 nM
IC50 [3]: < 100 nM
IC50 [4]: < 100 nM
IC50 [5]: < 100 nM

C=CC(=O)Nc1cc(Nc2ncc(C(=O)OC(C)C)c(-c3cn(C)c4ncccc34)n2)c(OC)cc1N(C)CCN(C)C [Example 34, isopropyl 2-((5-acrylamido-4-((2-(dimethylamino)ethyl)(methyl)amino)-2-methoxyphenyl)amino)-4-(1-methyl-1H-pyrrolo[2,3-b]pyridin-3-yl)pyrimidine-5-carboxylate]
IC50 [1]: < 100 nM
IC50 [2]: < 100 nM
IC50 [3]: < 100 nM
IC50 [4]: < 100 nM
IC50 [5]: < 100 nM

C=CC(=O)Nc1cc(Nc2ncc(C(=O)OC(C)C)c(-c3cn(C)c4ccccc34)n2)c(OC)cc1N(C)C[C@@H]1CCCN1C [Example 35, (S)-isopropyl 2-((5-acrylamido-2-methoxy-4-(methyl((1-methylpyrrolidin-2-yl)methyl)amino)phenyl)amino)-4-(1-methyl-1H-indol-3-yl)pyrimidine-5-carboxylate]
IC50 [1]: < 100 nM
IC50 [2]: < 100 nM
IC50 [3]: < 100 nM
IC50 [4]: < 100 nM
IC50 [5]: < 100 nM

C=CC(=O)Nc1cc(Nc2ncc(C(=O)OC(C)C)c(-c3cn(C)c4ccccc34)n2)c(OC)cc1N(C)C[C@H]1CCCN1C [Example 36, (R)-isopropyl 2-((5-acrylamido-2-methoxy-4-(methyl((1-methylpyrrolidin-2-yl)methyl)amino)phenyl)amino)-4-(1-methyl-1H-indol-3-yl)pyrimidine-5-carboxylate]
IC50 [1]: < 100 nM
IC50 [2]: < 100 nM
IC50 [3]: < 100 nM
IC50 [4]: < 100 nM
IC50 [5]: < 100 nM

C=CC(=O)Nc1cc(Nc2ncc(Cl)c(-c3cnn4ccccc34)n2)c(OC)cc1N(C)CCN(C)C [Example 52, N-(5-((5-chloro-4-(pyrazolo[1,5-a]pyridin-3-yl)pyrimidin-2-yl)amino)-2-((2-(dimethylamino)ethyl)-(methyl)amino)-4-methoxyphenyl)-acrylamide]
IC50 [1]: < 100 nM
IC50 [2]: < 100 nM
IC50 [3]: < 100 nM
IC50 [4]: < 100 nM
IC50 [5]: 100 to 500 nM

C=CC(=O)Nc1cc(Nc2ncc(Cl)c(-c3c[nH]c4ccccc34)n2)c(OC)cc1N(C)CCN(C)C [Example 56, N-(5-((5-chloro-4-(1H-indol-3-yl)pyrimidin-2-yl)amino)-2-((2-(dimethylamino)ethyl)(methyl)amino)-4-methoxyphenyl)acrylamide]
IC50 [1]: < 100 nM
IC50 [2]: < 100 nM
IC50 [3]: < 100 nM
IC50 [4]: < 100 nM
IC50 [5]: < 100 nM

C=CC(=O)Nc1cc(Nc2ncc(C(=O)OC(C)C)c(-c3cn(C)c4ccccc34)n2)c(OC)cc1N(C)CCNC [Example 58, isopropyl 2-((5-acrylamido-2-methoxy-4-(methyl(2-(methylamino)ethyl)-amino)phenyl)amino)-4-(1-methyl-1H-indol-3-yl)pyrimidine-5-carboxylate]
IC50 [1]: < 100 nM
IC50 [2]: < 100 nM
IC50 [3]: < 100 nM
IC50 [4]: < 100 nM
IC50 [5]: < 100 nM

C=CC(=O)Nc1cc(Nc2ncc(C(=O)OC(C)C)c(-c3c[nH]c4ncccc34)n2)c(OC)cc1N(C)CCN(C)C [Example 66, isopropyl 2-((5-acrylamido-4-((2-(dimethylamino)ethyl)(methyl)amino)-2-methoxyphenyl)amino)-4-(1H-pyrrolo[2,3-b]pyridin-3-yl)pyrimidine-5-carboxylate]
IC50 [1]: < 100 nM
IC50 [2]: < 100 nM
IC50 [3]: < 100 nM
IC50 [4]: < 100 nM
IC50 [5]: < 100 nM

C=CC(=O)Nc1cc(Nc2ncc(C(=O)OC(C)C)c(-c3cn(C)c4ccccc34)n2)c(OC)cc1OCCN(C)C [Example 67, isopropyl 2-((5-acrylamido-4-(2-(dimethylamino)ethoxy)-2-methoxyphenyl)amino)-4-(1-methyl-1H-indol-3-yl)pyrimidine-5-carboxylate]
IC50 [1]: < 100 nM
IC50 [2]: < 100 nM
IC50 [3]: < 100 nM
IC50 [4]: < 100 nM
IC50 [5]: < 100 nM

C=CC(=O)Nc1cc(Nc2ncc(C(=O)OC(C)C)c(-c3cn(C)c4ccccc34)n2)c(OC)cc1N(C)C[C@@H]1CCCN1 [Example 73]
IC50 [1]: < 100 nM
IC50 [2]: < 100 nM
IC50 [3]: < 100 nM
IC50 [4]: < 100 nM
IC50 [5]: < 100 nM

C=CC(=O)Nc1cc(Nc2ncc(C(=O)OC(C)C)c(-c3cn(C)c4ncccc34)n2)c(OC)cc1N(C)CCNC [Example 74, isopropyl 2-((5-acrylamido-2-methoxy-4-(methyl(2-(methylamino)ethyl)amino)phenyl)amino)-4-(1-methyl-1H-pyrrolo[2,3-b]pyridin-3-yl)pyrimidine-5-carboxylate]
IC50 [1]: < 100 nM
EGFR exon 21 L858R and T790M mutation IC50 [2]: B (Group B compounds have an IC50 value for the indicated mutant between about 100 to about 500 nM)
IC50 [3]: < 100 nM
IC50 [4]: < 100 nM
IC50 [5]: 100 to 500 nM

C=CC(=O)Nc1cc(Nc2ncc(C(=O)OC(C)C)c(-c3cn(CC)c4ccccc34)n2)c(OC)cc1N(C)CCN(C)C [Example 77, isopropyl 2-((5-acrylamido-4-((2-(dimethylamino)ethyl)(methyl)amino)-2-methoxyphenyl)amino)-4-(1-ethyl-1H-indol-3-yl)pyrimidine-5-carboxylate]
IC50 [1]: < 100 nM
IC50 [2]: < 100 nM
IC50 [3]: < 100 nM
IC50 [4]: < 100 nM
IC50 [5]: < 100 nM
